Test results reported in patent publication US8513203B2, “Composition and method thereof” (Indus Biotech Private Limited, priority 2011, dated 2013).

System: FCA induced arthritis
Assay: FCA induced arthritis, non-injected paw volume
Type: in vivo, rat
Conditions: 10 mg/kg
Protocol: Anti-arthritis activity was studied by injecting Freund's complete adjuvant (FCA) in rat paw and measuring the edema formation and percentage inhibition of paw volume in the non-injected paw.
Male wistar rats weighing between 190-250 g were injected with 0.1 ml of FCA into the sub planter region of left hind paw. 0.1 ml of FCA solution consist of 6 mg of Complete Fraction of Mycobacterium Butyrium (Difco) being Suspended in heavy Paraffin Oil (Merck). Local oedema was produced after few hrs. Treatment with the test compound was carried out from day 13 to day 21 after FCA injection. Volume of the non-injected hind paw was recorded using plethysmometer (UGO Basile 7140).
The percentage inhibition of inflammation in the non-injected paw was measured as difference in the mean paw volume of the FCA control group to that of the treated animals.

Q: For `Cc1ccc(-c2cc(C(F)(F)F)nn2-c2ccc(S(N)(=O)=O)cc2)cc1` [Celecoxib], which “Percentage reduction of FCA induced arthritis” value (Day 18) is on record?
A: The value was 58.97 ± 35.93 %.

Q: And the “Percentage reduction of FCA induced arthritis” value (Day 21)?
A: Its value is 81.24 ± 22.35 %.
